Measured values: US20100240746A1, “STEREOISOMERS OF TRICYCLODECAN-9-YL-XANTHOGENATE” (LUMAVITA AG, priority 2007, published 2010)
Converted amounts (≈) assume the structure as drawn.

Key:
[1] = test system: phosphatidylcholine-specific phospholipase C (PC-PLC); conditions: Gonzalez-Roura et al.; comparison between diastereomers; cited from earlier work
[2] = biological target: T1, B. cereus PC-PLC (phosphatidylcholine-specific phospholipase C) (Bacillus cereus, UniProt P09598); experiment: Inhibition of phosphatidylcholine-specific phospholipase C (Amplex Red PC-PLC assay kit); assay type: biochemical; conditions: 30 min at 37° C., 0.2 U/mL PC-PLC solution, triplicate
T1 construct: purchased Invitrogen
T1 sequence (P09598 39-283 limits assumed): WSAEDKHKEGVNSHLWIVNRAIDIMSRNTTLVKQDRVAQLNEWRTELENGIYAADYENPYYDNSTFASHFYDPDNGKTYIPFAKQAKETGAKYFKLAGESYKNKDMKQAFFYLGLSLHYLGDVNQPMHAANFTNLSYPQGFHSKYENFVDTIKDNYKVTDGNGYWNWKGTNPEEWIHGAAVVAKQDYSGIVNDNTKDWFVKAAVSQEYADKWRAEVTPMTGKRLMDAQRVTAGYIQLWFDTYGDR
Protocol: (§1) The inhibitory activities of optically active potassium salts of (+)- and (−)-O-exo/C-exo-tricyclo [5.2.1.0^2,6]-dec-9-yl-xanthic acid 1A ((+)- and (−)-enantiomers 1A) against phosphatidylcholine-specific phospholipase C were evaluated, together with D609 and potassium salt of racemic O-exo/C-exo xanthic acid 1A (racemic 1A), using Amplex Red phosphatidylcholine-specific phospholipase C(PC-PLC) assay kit, which was obtained from Invitrogen (Calsbad, Calif.). D609 was obtained from Sigma Aldrich.
(§2) An Amplex Red stock solution (˜20 mM), a working reaction buffer, and a horseradish peroxidase stock solution (200 U/mL), a H2O2 working solution (20 mM), a choline oxidate stock solution (20 U/mL), an alkaline phosphatase stock solution (400 U/mL), and a B. cereus PC-PLC stock solution (10 U/mL) were prepared according to the instruction of the assay kit. The stock solution (100 mg/mL) for each test compound was also prepared by dissolving the compound in water 2 hr prior to the start of the experiment.
(§3) A working Amplex Red/HRP/lecithin solution was prepared by adding 200 μL of Amplex Red reagent stock solution, 100 μL of HRP stock solution, 200 μL of alkaline phosphatase stock solution, 100 μL of choline oxidase stock solution, and 78 μL of the lecithin solution to […] of the working reaction buffer. PC-PLC solution (0.2 U/mL) was prepared by diluting the PC-PLC stock solution with the working reaction buffer to the desired concentration.
The test compound (25 μL) at a serious of concentrations was pipetted into a 96 well plate. For uninhibited PC-PLC controls and non-PC-PLC controls, 25 μL of water was added. After the addition of 50 μL of the Amplex Red/HRP/lecithin working solution, the reaction was initiated by adding 25 μL of PC-PLC solution to each well. […] After incubated for 30 min at 37° C., the reactions were measured with a fluorescence microplate reader using excitation at 550 nm and emission detection at 590 nm. The fluorescent data obtained were corrected for background fluorescence by subtracting the values obtained from the non-PC-PLC controls.

[3] = test system: bovine papilloma virus type I (BPV-1)-transformed HEF (HEF-BPV); experiment: Inhibition of bovine papilloma virus, BPV-infected hamster embryo fibroblasts (HEF) cell proliferation assay; assay type: cell-based; conditions: Bos taurus papillomavirus 1, HEF, 72 h, pH 6.8, HEF-BPV, 37° C., read-out: IC50
Protocol: Briefly, hamster embryo fibroblasts and bovine papilloma virus type I (BPV-1)-transformed HEF (HEF-BPV) were grown in Eagle's basal medium. […] and HEF cells were seeded in 96-well plates at a density of 0.5×10^6 cells per plate in DMEM cell culture medium containing 10% fetal calf serum at pH 6.8. The plates were then incubated in the presence of 5% CO2 in 100% humidity at 37° C. After 6 hr, the cell culture medium in the plates was exchanged with fresh DMEM cell culture medium containing test compounds at a series of concentrations. The plates were incubated at 37° C. for additional 72 hr. Cells in the plates were then washed with PBS, fixed with 3% formaldehyde solution containing 0.9% NaCl for 1 min, washed by water for 10 sec, and dried overnight. For detection, the plates were stained with crystal violet solution for 5 min at room temperature, washed 5 times with water, and dried at room temperature overnight. After adding ethanol/acetic acid (99:1, v/v, […]) to each well, the plates were measured at 595 nm using an ELISA reader.

[4] = test system: Herpes simplex virus type-2 (HSV-2); experiment: Inhibition of HSV-2 (plaque assay; Calu-6 infected, RITA cells for plaques); assay type: cell-based
Protocol: (§4) Calu-6 cells and RITA cells were grown in DMEM cell culture medium containing 10% fetal calf serum in CO2 incubator under 5% CO2 at 37° C. with 100% humidity.
(§5) For HSV-2 inhibition, Calu-6 cells were seeded in 96 well plates at a density of 3×10^6 cells per plate in the DMEM cell culture medium. The plates were incubated at 37° C. in the presence of 5% CO2 for 24 hr. The DMEM cell culture medium in the plates was removed and the cells were infected with Herpes simplex virus type-2 at 50 plaque forming units per well. After incubation at 37° C. for 60 min, test compounds in DMEM cell culture medium at a series of concentrations were added. The plates were incubated at 37° C. in the presence of 5% CO2 for 48 hr. The plates were frozen at −20° C. prior to further analysis. After thawing at room temperature, supernatants containing infectious virus particles were prepared by centrifuging the supernatant from each well at 18,000 g at 4° C. for 5 min. The supernatant was further diluted before assay.
RITA cells were seeded in 24 well Linbra plates at a density of 4×10^6 cells per plate in 2 mL of DMEM cell culture medium. The plates were incubated at 37° C. in the presence of 5% CO2 for 24 hr. After the removal of the cell culture medium, 0.1 mL of the diluted supernatants was added and the plates were incubated at 37 C for 1 hr. DMEM cell medium containing 10% fetal calf serum and 0.5% methyl cellulose was added and the plates were incubated at 37 for 48 hr. The plates were then washed with PBS, fixed with 3% formaldehyde solution containing 0.9% NaCl for 1 min, washed by water for 10 sec, and dried overnight. For detection, the plates were then stained with crystal violet solution for 5 min at room temperature, washed 5 times with water, and dried at room temperature overnight. The number of plaques was determined macroscopically. The number of plaques per well was then multiplied with the dilution factor. Dose response curves were obtained by plotting the number of plaques/0.1 mL against compound concentration. The therapeutic index was also calculated for each compound by dividing LD50 with IC50.

[5] = biological target: T2, phosphatidylcholine-specific phospholipase C (PC-PLC) (Bacillus cereus, UniProt P09598); experiment: Amplex Red phosphatidylcholine-specific phospholipase C (PC-PLC) inhibition assay; assay type: biochemical, B. cereus; conditions: 30 min at 37° C., triplicate
T2 construct: purchased Invitrogen
T2 sequence (P09598 39-283 limits assumed): as above
Protocol: as §1, §2, §3
The test compound (25 μL) at a serious of concentrations was pipetted into a 96 well plate. For uninhibited PC-PLC controls and non-PC-PLC controls, 25 μL of water was added. After the addition of 50 μL of the Amplex Red/HRP/lecithin working solution, the reaction was initiated by adding 25 μL of PC-PLC solution to each well. To the non-PC-PLC controls, 25 μL of water was added instead of PC-PLC solution. The experiment was performed in triplicate. The reactions were protected from light. After incubated for 30 min at 37° C., the reactions were measured with a fluorescence microplate reader using excitation at 550 nm and emission detection at 590 nm. The fluorescent data obtained were corrected for background fluorescence by subtracting the values obtained from the non-PC-PLC controls.

Calu-6 cells = experiment: Cytotoxicity assay in Calu-6 cells (crystal violet); assay type: cell-based; conditions: 48 hr
Protocol: as §4
For cytotoxicity assay, Calu-6 cells were seeded in 96 well plates at a density of 3×10^6 cells per plate in the DMEM cell culture medium. The plates were incubated at 37° C. in the presence of 5% CO2 for 24 hr. The DMEM cell culture medium in the plates was exchanged with fresh DMEM cell culture medium containing test compounds at a series of concentrations. The plates were incubated at 37° C. in the presence of 5% CO2 for 48 hr. The plates were then washed with PBS, fixed with 3% formaldehyde solution containing 0.9% NaCl for 1 min, washed by water for 10 sec, and dried overnight. For detection, the plates were stained with crystal violet solution for 5 min at room temperature, washed 5 times with water, and dried at room temperature overnight. After adding ethanol/acetic acid (99:1, v/v, […]) to each well, the plates were measured at 595 nm using an ELISA reader. A dose response curve was obtained for each compound tested by plotting the mean values of the optical densities against compound concentration.

[6] = test system: herpes simplex virus type 2; experiment: HSV-2 inhibition in Calu-6 cells, plaque titration on RITA cells; assay type: cell-based; conditions: Human alphaherpesvirus 2, Calu-6; 48 hr, 50 plaque forming units per well
Protocol: as §4, §5
RITA cells were seeded in 24 well Linbra plates at a density of 4×10^6 cells per plate in 2 mL of DMEM cell culture medium. The plates were incubated at 37° C. in the presence of 5% CO2 for 24 hr. […] The number of plaques was determined macroscopically. […] The therapeutic index was also calculated for each compound by dividing LD50 with IC50.

[7] = test system: HPV-31-infected CIN612 9E keratinocytes; experiment: Short-term study: growth of HPV-31-infected CIN612 9E keratinocytes (crystal violet); assay type: cell-based; conditions: at 200 UI/mL, 72 hrs
Protocol: The inhibitory activities of optically active (−)-enantiomer 1A against human papilloma virus were evaluated using HPV-31-infected CIN612 9E keratinocytes (Meyers et al., Science 1992, 257, 971-973).
Effect on cell proliferation. HPV-31 infected cells were seeded in 96-well plates containing 1×10^6 mitomycin C treated 3T3 cells (1×10^4 cells/well), at a density of 0.5×10^6 cells per plate (0.5×10^4 cells/well) in E medium. After the plates were incubated in a CO2 incubator under 5% CO2 at 37° C. in 100% humidity for six hrs, the cell culture medium was removed and fresh E medium containing 0.85 g/L NaHCO3 and a test compound at a series of concentrations (0, 0.5, 1, 2, 4, 8, 16, 32, 64, and 128 μg/mL), or positive control (interferon γ at 200 IU/mL) was added. […] After the plates were dried on blotting paper upside down overnight, 0.1 mL of ethanol/acetic acid (99:1) was added to each well and optical density at 595 nm was determined in an ELISA reader.
Dose response curves were established by plotting growth against concentrations of the test compound or control. ICso values were determined from the dose response curves from crossing points of the dose response curves with a line parallel to the x-axis corresponding to 50% of uninhibited growth.

[8] = test system: HPV-31-infected CIN612 9E keratinocytes; experiment: Long-term study: cell proliferation and morphology of CIN612 9E cells over 9 passages; assay type: cell-based; conditions: 200 IU/mL
Protocol: (§6) HPV-31 infected cells (3×10^6) were dispensed into 14.5 cm dishes containing fresh E medium and 1×10^6 cells of mitomycin C-treated 3T3 fibroblast feeders. The dishes were incubated in a CO2 incubator under 5% CO2 at 37° C. in 100% humidity. Human A431 epithelial cancer cells were used as HPV-uninfected negative controls. After 6 hr incubation, the cell culture medium was removed and fresh E medium containing 0.85 g/L NaHCO3 and a test compound at concentrations of 10 and 3.3 μg/mL, or control (interferon γ at 200 IU/mL) were added. For each concentration, 4 dishes were prepared. The dishes were incubated at 37° C. in a CO2 incubator. The culture medium was replaced to new E medium containing each concentration of the test compound or control in every 72 hrs. After seven days, or when untreated cells became confluent, one dish of each group was harvested for DNA/RNA extraction, followed by Southern/Northern Blot analysis; and one dish was trypsinized, cell number were determined and cells were seeded in three new dishes, treated and cultured as described above. This procedure was repeated for 9 passages. During these passages, morphology of cells and cell density were monitored.
Effect on cell proliferation. Cell numbers in the dishes harvested were determined in a Neubauer hematocytometer. The multiplication factor was determined at every step of passage. The cell number of each culture at the end of the passage was divided by the number of seeded cells at the start of each passage. The end point was reached when keratinocytes treated with a test compound stopped growing. Stop of cell growth was defined as a multiplication factor of no greater than 1.

HPV-31 specific DNA = experiment: Long-term study: HPV-31 specific DNA level (Southern blot); assay type: cell-based, human papilloma virus; conditions: at 200 IU/mL
Protocol: as §6
(§7) Effect on HPV-31 specific DNA and RNA: DNA and RNA were analyzed in Southern and Northern Blot gels for HPV-31 specific sequences. X-ray films were scanned and optical densities of HPV-31 specific DNA and major mRNA species were integrated. Time curves were established by plotting integrated values against number of passages for each treatment dose. The T50 (time required to reduce the level to 50% of control) was determined from the time curves from crossing points of time curves with a line parallel to the x-axis corresponding to 50% of integrals of untreated control sample.

HPV-31 specific RNA = experiment: Long-term study: HPV-31 specific RNA level (Northern blot); assay type: cell-based, human papilloma virus; conditions: at 200 IU/mL
Protocol: as §6, §7

Molecule: S=C(S)OC1CC2CC1C1CCCC21 (racemic) [Racemic 1A, racemic O-exo/C-exo-tricyclo[5.2.1.0^2,6]-dec-9-yl-xanthic acid]
- inhibitory activities against PC-specific phospholipase C [1]: no significant differences

Molecule: S=C(S)OC1CC2CC1C1CCCC21 (single isomer, unassigned; (+)) [(+)-Enantiomer 1A, (+)-O-exo/C-exo-tricyclo[5.2.1.0^2,6]-dec-9-yl-xanthic acid]
- IC50 [2]: 60.8 µM
- IC50 [3]: 19.9 ± 2.52 µg/mL (≈ 87.1 µM)
- IC50 ([4]; Calu-6 cells, 48 hr, 50 plaque forming units per well): 20.97 ± 4.06 µg/mL (≈ 91.8 µM)
- Therapeutic Index ([4]; LD50 (Calu-6) divided by IC50 (HSV-2), 2880 min): 3.9

Molecule: S=C(S)OC1CC2CC1C1CCCC21 (single isomer, unassigned; enantiomer 1a) [(+)-Enantiomer 1A, (+)-O-exo/C-exo-tricyclo[5.2.1.0^2,6]-dec-9-yl-xanthic acid 1A]
- IC50 [5]: 13.88 ± 0.85 µg/mL (≈ 60.8 µM)
- LD50 (Calu-6 cells): 81.29 ± 4.53 µg/mL

Molecule: Nc1nc2c(ncn2COCCO)c(=O)[nH]1 [Aciclovir, aciclovir]
- IC50 [6]: 1.21 ± 0.81 µg/mL (≈ 5.37 µM)

Molecule: S=C(S)OC1CC2CC1C1CCCC21 (stereo not drawn) [O-exo/C-endo 1B]
- inhibitory activities against PC-specific phospholipase C [1]: no significant differences

B1: INF-γ: interferon γ, positive control at 200 IU/mL (protein, UniProt P01579 24-161, looked up)
Interferon gamma: QDPYVKEAENLKKYFNAGHSDVADNGTLFLGILKNWKEESDRKIMQSQIVSFYFKLFKNFKDDQSIQKSVETIKEDMNVKFFNSNKKKRDDFEKLTNYSVTDLNVQRKAIHELIQVMAELSPAAKTGKRKRSQMLFRG
- inhibition of the growth of HPV-31-infected CIN612 9E keratinocytes [7]: about 50%
- multiplication factor ([8]; first cell passage): 0.8
- multiplication factor ([8]; second passage): 2.4
- T50 DNA (HPV-31 specific DNA): 2.7 passages
- T50 RNA (HPV-31 specific RNA): 3.36 passages
